Like-named read-outs stand apart in the source and are kept apart here.
Assays:
[1] = pKA determination of amines by pH at half-equivalence with hydrochloric acid; conditions: for pKA (120° C.) / pKA (50° C.): aqueous solution, amine 0.01 mol/kg; for ΔpKA (120 − 50° C.): difference between 120° C. and 50° C.
Excerpt: (§1) The pKA values are suitably determined in aqueous solution with an amine concentration of 0.01 mol/kg at the given temperature by determining the pH at the point of half-equivalence of the dissociation stage under consideration by means of addition of hydrochloric acid (1st dissociation stage 0.005 mol/kg; 2nd dissociation stage: 0.015 mol/kg; 3rd dissociation stage: 0.025 mol/kg). Measurement is accomplished using a thermostated closed jacketed vessel in which the liquid was blanketed with nitrogen. The Hamilton Polylite Plus 120 pH electrode was used, which was calibrated with pH 7 and pH 12 buffer solutions.

Excerpt for physchem: as §1

pKa (physchem; aqueous solution of the amine)	pKA (120° C.) ([1]; dissociation stage pKA1)	ΔpKA (120 − 50° C.) ([1]; dissociation stage pKA1)	pKA (50° C.) ([1]; dissociation stage pKA2)	pKA (120° C.) ([1]; dissociation stage pKA2)	ΔpKA (120 − 50° C.) ([1]; dissociation stage pKA2)	pKA (50° C.) ([1]; dissociation stage pKA1)	pKA (50° C.) ([1]; dissociation stage pKA3)	pKA (120° C.) ([1]; dissociation stage pKA3)	ΔpKA (120 − 50° C.) ([1]; dissociation stage pKA3)	Compound	pKa (physchem)
9.8	8.17	1.63	8.01	6.67	1.34	–	–	–	–	CN(C)C1CCC(N(C)C)CC1 (stereo not shown) [1,4-Bis(dimethylamino)cyclohexane]	–
–	–	–	–	–	–	–	–	–	–	CN(C)C1CCCCC1 [Cyclohexyl-N,N-dimethylamine]	10
11.2	9.78	1.59	–	9.35	1.88	11.37	10.45	7.97	2.48	CN(C)CCCN1CN(CCCN(C)C)CN(CCCN(C)C)C1 [N,N,N′,N′,N″,N″-Hexamethyl-1,3,5-triazine-1,3,5(2H,4H,6H)-tripropanamine]	–
10.1	8.63	1.51	10.13	8.62	1.51	–	10.12	8.69	1.43	CN(C)CCCN(CCO)CCCN(C)C [Hydroxyethylbis(dimethylaminopropyl)amine]	–
